Drawing on the Bradley open melting point set (2014), this text covers melting point for 33 compounds.

The term melting point denotes the temperature of the solid-liquid transition.

Several values for one entry are separate records, joined by “and”; a condition that tells them apart may be missing. Identical values can stand only once.

Consider `O=C(O)C1C(C(=O)O)C2(Cl)C(Cl)=C(Cl)C1(Cl)C2(Cl)Cl` (stereo not drawn), for which the melting point was 240 °C.
Next, `C#C[C@]5(O)CC[C@H]4[C@H]3[C@@H]([C@@]2(/C(=C\c1oncc1C2)CC3)C)CC[C@@]45C` [danazol]: 225 °C; `CC(=O)Nc1ccc(O)cc1` [N-(4-Hydroxyphenyl)acetamide]: 170 °C; `O=[N+]([O-])c1cccc(F)c1` [1-fluoro-3-nitrobenzene]: 2 °C.
Next, `CCCCCCCCCCCCC=O` [tridecanal]: 15 °C; `CO[C@H]1C=CO[C@@]2(C)Oc3c(C)c(O)c4c(O)c(c(/C=N/N5CCN(C)CC5)c(O)c4c3C2=O)NC(=O)C(C)=CC=C[C@H](C)[C@H](O)[C@@H](C)[C@H](O)[C@H](C)[C@H](OC(C)=O)[C@@H]1C` [Rifampin]: 183 °C; `Nc1cccc(Cl)c1C(=O)O` [2-amino-6-chlorobenzoic acid]: 151 °C.
As for `NC1(C(=O)O)CCCC1` [Cycloleucine], the melting point amounted to 330 °C.
The result for `CCCCOC(=O)c1ccc(O)cc1` [Butyl 4-hydroxybenzoate] reads 68.5 °C.
Compound `C=C1C(C[C@@H](O)C[C@@H]1O)=CC=C2/CCC[C@]3(C)[C@H](CC[C@@H]23)[C@H](C)CCCC(C)(C)O` [Calcitriol] yielded a melting point of 113 °C.
With `CCCC(=O)CCC` [Heptan-4-one], the melting point is -33 °C.
Next, `Ic1ccccc1` [iodobenzene]: -31 °C; `COC(=O)[C@@H](N)Cc1ccc(O)cc1` [Methyl L-tyrosinate]: 134 °C; `O=[N+]([O-])c1ccccc1C#Cc1ccccn1` [2-[(2-nitrophenyl)ethynyl]pyridine]: 55 °C.
Next, `CCOCCC(=O)OCC` [ethyl 3-ethoxypropionate]: -100 °C; `CCCSc1ncccc1C(N)=O` [2-(n-propylthio)nicotinamide]: 147 °C; `O=c1cc(-c2ccccc2)oc2cccc(O)c12` [5-hydroxyflavone]: 158 °C.
In the case of `ICCCCI` [1,4-diiodobutane], the melting point was 6 °C.
Next, `OB(O)c1cc(C(F)(F)F)ccc1F` [2-fluoro-5-(trifluoromethyl)benzeneboronic acid]: 107 °C.
Regarding `CC(Cl)CCl` (stereo not drawn) [1,2-dichloropropane], the melting point was -100 °C.
The result for `CNC[C@H](O)c1ccc(O)c(O)c1` [Epinephrine] reads 212 °C; that for `CC(=O)Oc1ccc(C(=O)O)cc1` [4-acetoxybenzoic acid], 194 °C.
Next, `OCCCl` [2-chloroethanol]: -67 °C; `CC(=O)O[C@]1(C(C)=O)CC[C@H]2[C@@H]3C[C@H](C)C4=CC(=O)CC[C@]4(C)[C@H]3CC[C@@]21C` [(6alpha)-6-Methyl-3,20-dioxopregn-4-en-17-yl acetate]: 208 °C.
The result for `c1ccoc1` [furan] reads -85 °C; that for `c1ccc2c(c1)Cc1ccccc1-2` [fluorene], 116 °C and 115 °C; that for `O=C(O)c1ccc(C(F)(F)F)nc1Cl` [2-chloro-6-(trifluoromethyl)nicotinic acid], 119 °C.
`CNc1ccc([N+](=O)[O-])cc1` [N-methyl-4-nitroaniline] came in with a melting point of 153 °C.
The result for `O=C(/C=C/c1ccccc1)c1ccccc1O` [2'-hydroxychalcone] reads 90 °C.
The result for `N#CCc1ccc(N)cc1` [4-aminobenzyl_cyanide] reads 45 °C; that for `O=C1CCC(c2ccccc2)c2ccccc21` (stereo not drawn) [1(2H)-Naphthalenone, 3,4-dihydro-4-phenyl-], 75 °C.
Next, `COc1cccc(OC)c1OC` [1,2,3-trimethoxybenzene]: 45 °C; `COC(=O)C1Cc2ccccc2C(=O)O1` (stereo not drawn) [methyl 1-oxo-3,4-dihydro-1H-isochromene-3-carboxylate]: 90 °C.
